# Read-outs that look alike come from different tables or passages of the source.
# Assays:
# [1] = system: primary human bronchial epithelial cells; experiment: Toxicity observed in PBEC during the 48 h antiviral incubation; type: cell-based; conditions: 48 h incubation
# Description: Day 2. Pre-treatment of PBEC cells in 48 wells plate with 2-DG prior to SARS-CoV-2 infection (2 h), and treatment with 2-DG for 48 h. SARS-CoV-2 was added at MOI 10-1 (MOI 0.1) and removed after 2 hours. Then, the cell culture was washed with PBS (3×0.5 mL) and 300 μL of medium with 2-DG from 50 mM to 0.39 mM, or medium with or without remdesivir for control, were added.
# [2] = very high tolerance; cited from earlier work
# [3] = 2-DG uptake measurement in lung tissue lysates of mice treated by inhalation; type: in vivo; conditions: 7 days, 14 days
# Description: The analysis involved six lung tissue sections of mice (both male and female) treated by inhalation with 2-DG at a concentration of 30 mM thrice a day for 24 hours, 7 days and two weeks. The tissues were weighed, suspended in 10 mM Tris-HCl lysis buffer (pH 8.0) and then subjected to homogenization with the use of homogenizer (MPW-302, Precision Mechanics). Each analyzed sample is described in table below:
# The 2DG6P accumulation in cells was determined with the use of 2-Deoxyglucose (2-DG) Uptake Measurement Kit (Cat. No. CSR-OKP-PMG-K01TE; Cosmo Bio Co., LTD., Tokyo, Japan) according to the manufacturer's protocol.
# 1. Cell and tissue lysates were heat treated at 80° C. for 15 min and then centrifuged at 4° C., 15 000×g for 20 min.
# 2. The supernatants were transferred to new tubes and used as unknown samples for measurement method (point 5).
# 3. The 2DG6P standards were prepared by serial dilution of 1 mM 2DG6P in 1× Sample Diluent Buffer in the following ranges: 0; 0.3125; 0.625; 1.25; 2.5 and 5 μM.
# 4. 60 μL of Reagent Mix A (including NAD and low glucose-6-phosphate dehydrogenase (G6PDH)) were added to each well of 96-ell plate.
# 5. Then 2DG6P standard and unknown samples (20 μL) were added to each well and incubated for over 19 hours at room temperature.
# 6. […]
# 12. The optical density (OD) was read at 420 nm in every 2.5 min over a period of 30 min using a microplate reader preheated to 30° C.
# [4] = system: SARS-CoV-2; type: cell-based; conditions: Vero E6
# [5] = system: SARS-CoV-2; type: cell-based; conditions: for TCID50/ml: Vero-E6, M.O.I 0.001
# [6] = system: SARS-CoV-2; conditions: Bojkova et al. 2020; cited from earlier work
# [7] = system: Human Bronchial Epithelial Cells (HBEpiC); experiment: Cell viability (CellTiter 96 AQueous), long exposure; type: cell-based; conditions: 48 h exposure (FIG. 5)
# Description: (§1) Human Bronchial Epithelial Cells (HBEpiC) were obtained from Innoprot (Cat no. P10557, batch no. 7475) and cultured in Bronchial Epithelial Cell Medium (Innoprot, Cat no. P60151) supplemented with 0.2% gentamicin (Gibco, Life Technologies, USA, Cat. no. 15710-049) under standard cell culture conditions (5% CO2, 16% O2, 37° C.). HBEpiC at passage 6, were plated in Bronchial Epithelial Cell Medium at 9.0 thousand cells per well of a 96-well plate and left for 48 hours in an incubator. The plates were coated with collagen (Collagen I-cell surface coating kit, Innoprot, Cat no. P8188) prior to cell seeding. 2-deoxy-D-glucose (Sigma-Aldrich; Cat no. D8375) was added to the cells for 48 h.
# Cells were exposed to compounds at the following concentrations of 2-deoxy-D-glucose in medium as a solvent: 100 mM; 50 mM; 25 mM; 12.5 mM; 6.25 mM; 3.13 mM.
# In order to asses cell viability, CellTiter 96® AQueous Solution Assay (Promega) was used in accordance with the manufacturer's instructions, 20 μl of reagent was added per 100 μl of cell culture medium and cells were incubated at 5% CO2, 16% O2, 37° C. Absorbance was measured at 490 nm. The results obtained 4 hours after addition of the CellTiter reagent were analyzed in GraphPadPrism 5.01. Data normalization and a nonlinear regression model were applied in order to determine the IC50.
# [8] = system: Human Bronchial Epithelial Cells (HBEpiC); experiment: Cell viability (CellTiter 96 AQueous), short exposure; type: cell-based; conditions: 15 minutes to 6 hours exposure
# Description: as §1, with “at passage 2, were plated” for “at passage 6, were plated”, “Medium at 10.0 thousand cells” for “Medium at 9.0 thousand cells”, “cells for 15 min, 30 min, 1 h, 2 h and 6 h.” for “cells for 48 h.”
# Cells were exposed to the compound at the following concentrations of 2-deoxy-D-glucose in medium as a solvent: 200 mM; 100 mM; 50 mM; 25 mM; 12.5 mM; 6.25 mM.
# In order to assess cell viability, medium containing 2-deoxy-D-glucose was removed, the fresh medium was added to the cells and CellTiter 96® AQueous Solution Assay (Promega) was used in accordance with the manufacturer's instructions, 20 μl of reagent was added per 100 μl of cell culture medium and cells were incubated at 5% CO2, 16% O2, 37° C. Absorbance was measured at 490 nm. The results obtained 1 hour after addition of the CellTiter reagent were analyzed in GraphPadPrism 5.01. […]
# [9] = system: SARS-CoV-2; type: cell-based
# [10] = system: rhinovirus; conditions: Gualdoni et al. 2018; cited from earlier work
# [11] = system: rhinovirus; conditions: Gualdoni et al. 2018; cited from earlier work; remark: listed apart in the source
# [12] = system: SARS-CoV-2 Spike Protein; experiment: Western blot analysis of Spike protein glycosylation in human bronchial epithelial cells (HBEpiC) transduced with Spike lentiviral vectors; type: cell-based
compound,measurement,setting,value
"O=CC[C@@H](O)[C@H](O)[C@H](O)CO [Example 2-DG, 2-deoxy-D-glucose]",toxicity,[1],No toxicity
same,tolerated dose in clinical trials,[2],up to 63 mg per kg body weight and day
same,course of 2-DG accumulation over treatment time,[3]; inhalation 24 h,plateau effect
same,2-DG accumulation in the lungs,"[3]; inhalation of 30 mM 2-DG thrice a day for 24 h, OD 420 nm (FIG. 10)",accumulated in the lungs
same,production of infectious SARS-CoV-2 particles (TCID50),"[4]; MOI 0.001, 0.39 to 50 mM, 24 h",strong decrease
same,effect on qPCR experiments (gene E copy numbers) compared with TCID50,[4]; RT-qPCR,less pronounced
same,production of infectious SARS-CoV-2 particles (TCID50),"[5]; Vero E6, 2-DG added 8 hours after infection",strong decrease
same,TCID50/ml,"[5]; Post-treatment (8 h.p.i), 2-DG 0.19 mM",1.47E+07 TCID50/ml
same,TCID50/ml,"[5]; Post-treatment (8 h.p.i), 2-DG 0.56 mM",3.16E+07 TCID50/ml
same,TCID50/ml,"[5]; Post-treatment (8 h.p.i), 2-DG 1.67 mM",3.16E+06 TCID50/ml
same,TCID50/ml,"[5]; Post-treatment (8 h.p.i), 2-DG 5 mM",3.16E+05 TCID50/ml
same,TCID50/ml,"[5]; Post-treatment (8 h.p.i), 2-DG 15 mM",3.16E+04 TCID50/ml
same,TCID50/ml,"[5]; Post-treatment (8 h.p.i), 2-DG 45 mM",1.47E+01 TCID50/ml
same,TCID50/ml,"[5]; Treatment (0 h.p.i), 2-DG 0.19 mM",6.81E+06 TCID50/ml
same,TCID50/ml,"[5]; Treatment (0 h.p.i), 2-DG 0.56 mM",3.16E+07 TCID50/ml
same,TCID50/ml,"[5]; Treatment (0 h.p.i), 2-DG 1.67 mM",1.47E+07 TCID50/ml
same,TCID50/ml,"[5]; Treatment (0 h.p.i), 2-DG 5 mM",1.47E+05 TCID50/ml
same,TCID50/ml,"[5]; Treatment (0 h.p.i), 2-DG 15 mM",3.16E+02 TCID50/ml
same,TCID50/ml,"[5]; Treatment (0 h.p.i), 2-DG 45 mM",3.16E+00 TCID50/ml
same,SARS-CoV-2 replication,[6],inhibition
same,IC50 (cell viability),[7],very high
same,cytotoxic effects on epithelial cells,[8],lack of cytotoxic effects
same,concentration from which production of infectious SARS-CoV-2 particles decreases,"[9]; PBEC, 2 h pretreatment, MOI 0.1, 48 h, TCID50",≥ 0.78 mM
same,concentration above which effect is equivalent to the positive control remdesivir,"[9]; PBEC, remdesivir 6 μM",above 0.78 mM
same,concentration from which production of infectious SARS-CoV-2 particles massively decreases,"[9]; PBEC, treatment only conditions, MOI 0.1, 48 h, TCID50",≥ 0.78 mM
same,SARS-CoV-2 virus production,"[9]; primary human bronchial epithelial cells, 0.39 to 50 mM",dose dependent decrease
same,infection and inflammation in a mouse model,[10],inhibited infection and inflammation
same,rhinovirus replication in vitro,[11],decreasing rhinovirus replication
same,inhibition of spike glycosylation at 15 mM,"[12]; 15 mM, FIG. 2",total inhibition
same,glycosylation of spike protein from SARS-CoV-2 virus,"[12]; 25 mM or 15 mM 2-DG for 24 h, Western blot (FIG. 2)",inhibits glycosylation
"CCC(CC)COC(=O)[C@H](C)N[P@](=O)(OC[C@H]1O[C@@](C#N)(c2ccc3c(N)ncnn23)[C@H](O)[C@@H]1O)Oc1ccccc1 [RMD, remdesivir]",TCID50/ml,"[5]; Post-treatment (8 h.p.i), RMD 6 μM",6.81E+03 TCID50/ml
same,TCID50/ml,"[5]; Treatment (0 h.p.i), RMD 6 μM",6.81E+00 TCID50/ml

# — patent US20230330118A1, “2-DEOXY-D-GLUCOSE FOR PREVENTION AND TREATMENT OF A VIRAL DISEASE, IN PARTICULAR OF COVID-19” (priority 2020, published 2023)
